Laboratory results taken from patent publication US11779630B2, “Peptides and methods of using the same” (SERPIN PHARMA, LLC, priority 2020, dated 2023).

How the values were obtained:
NFκB = NFκB reporter assay (THP1-XBlue-MD2-CD14 cells) stimulated with LPS, SEAP readout; details: peptide 50 μg/ml, LPS 5 ng/ml, overnight (FIG. 1)
mice, lethal endotoxemia = experiment: Mouse model of lethal endotoxemia (LPS 15 mg/kg); assay type: in vivo
Protocol: FIG. 27A: The mice were treated with SP16 or vehicle and challenged with a lethal dose of LPS (15 mg/kg) and assessed for survival over 72 hours.

Substance	NFκB activity (NFκB inducible SEAP in supernatant) (NFκB)	survival between 30 and 42 hours (mice, lethal endotoxemia) [%]	survival by 72-hrs (mice, lethal endotoxemia; p<0.001 vs. vehicle) [%]
V K F N K P F V F L M (VKFNKPFVFLM; listed as Homo sapiens) [SP20]	did not have an inhibitory effect	–	–
V R F N R P F L (VRFNRPFL; peptide derivative) [SP31]	anti-inflammatory activity of the peptide was lost	–	–
R R R V R F N R P F L R R R (RRRVRFNRPFLRRR; peptide derivative) [SP32]	could not be restored with the Poly arginine flanks	–	–
R R R V K F N K P F V F L M R R R (RRRVKFNKPFVFLMRRR; peptide derivative) [SP22]	NFκB activity was significantly reduced	–	–
RRRVKFNKPFVFLMIEQNTKRRR (RRRVKFNKPFVFLMIEQNTKRRR; peptide derivative) [SP21]	NFkB inhibition increased as well relative to SP16	–	–
V K F N K P F V F L M I E Q N T K (VKFNKPFVFLMIEQNTK; listed as Homo sapiens) [SP16]	capable of reducing NFκB activity	100	60
